The values that follow come from US20080233561A1, “Method for Measuring Cytopathic Effect Due to Viral Infection in Cells Using Electric Cell-Substrate Impedance Sensing” (UNIVERSITY OF LOUISVILLE RESEARCH FOUNDATION, INC., priority 2005, published 2008).

This test deals with PR8 influenza A virus (influenza/A/PR/8/34 virus). Type of test: cell-based.

With `Cl.N` [NH4Cl, ammonium chloride], the “CPE in influenza-infected cells, observed with ECIS” value is listed as “Inhibition of CPE in influenza-infected cells”.
